Results published in PMC6196238, “Novobiocin, a Newly Found TRPV1 Inhibitor, Attenuates the Expression of TRPV1 in Rat Intestine and Intestinal Epithelial Cell Line IEC-6” (Frontiers in Pharmacology, 2018).

Tests used:
IEC-6/TRPV1+ cells [1] = assay: MTT cell viability assay; details: for Cell Survival: IEC-6/TRPV1+
Protocol: (§1) The rat intestinal epithelial cell line IEC-6, purchased from Kunming Institute of Zoology. CAS, was cultured in Dulbecco’s Modified Eagle’s Medium (DMEM) (Gibco, Grand Island, NY, United States) supplemented with 10% fetal bovine serum (FBS; Gibco) at 37°C in a humidified atmosphere of 5% CO2.
(§2) The plasmid pENTER containing the TRPV1 coding sequence NM_080704 was used as template in a PCR with the following primers: 5′-[…]-3′ (forward) and 5′-[…] (reverse). And synthetic small interfering RNA (siRNA) specific for rat TRPV1 (TRPV1-siRNA) was purchased from Vigene Bioscience (Rockville, MD, United States) with the following sequences: 5′-[…]-3′ (forward) and 5′-[…]-3′ (reverse) for TRPV1-siRNA. The transfecting process was conducted by using the lipofectamin® 3000 transfection reagent (Invitrogen^TM, Carlsbad, CA, United States), according to the manufacturer’s protocol.
(§3) The transfected cells were plated in 96-well plates. […] Optical density at 490 nm was used to evaluate cell viability in 96-well plates.

IEC-6/TRPV1- cells [2] = assay: MTT cell viability assay
Protocol: as §1, §2, §3

IEC-6/TRPV1+ cells [3] = assay: LDH release assay (cell membrane integrity); details: for LDH release: IEC-6/TRPV1+; for LDH release compared with the control: NOVO 2.5, 5, 10 μM, CAP 25 μM, RR 10 μM, SB-705498 0.1 μM, 12 and 24 h
Protocol: (§4) The transfected cells were plated in 12-well plates. […] The cells were centrifuged at 1000 g for 5 min. Next, 50 μL of supernatants were aspirated and the rest of supernatants were discarded. The cells were washed twice with deionized water and then lysed by ultrasonic wave cracker. And then cell lysate and supernatants were analyzed by using LDH Release Assay Kit, according to the manufacturer’s instructions.

IEC-6/TRPV1- cells [4] = assay: LDH release assay (cell membrane integrity)
Protocol: as §4

IEC-6/TRPV1- cells [5] = assay: CAP accumulation assay; assay type: cell-based, rat; details: 2.5-10 μM NOVO, 10 μM RR, 0.1 μM SB-705498, Figure 3D
Protocol: The transfected cells were grown to 80% confluence in 12-well plates. The experiment was divided into three parts: […] SB-705498, RR or NOVO was then added to the medium for another 15, 30, and 60 min. […] After incubation, the medium was removed, and cell layers were washed three times with ice-cold PBS and then extracted with Membrane Protein Extraction Kit (Thermo Fisher Scientific Inc, Rockford, IL, United States), according to the manufacturer’s protocol. The cytosolic protein extracts were stored at -80°C until LC-MS/MS analysis. The plasma samples and protein sample with 100 μL were extracted with 400 μL of methanol involving IS (verapamil 50 ng⋅mL^-1) by vortex-mix for 1 min, ultrasonic extraction for 1 h, and then centrifugation for 30 min at 15000 g. The supernatant was transferred into a borosilicate glass and 2 μL was subjected to LC-MS/MS analysis. The LC-MS/MS system consisted of Agilent 6460 Triple Quadrupole LC/MS systems via an ESI interface. The samples were separated on an Agilent ZORBAX SB-C18 column (3.5 μm, 2.1 mm × 150 mm) and the column temperature was maintained at 30°C. The mobile phase consisted of acetonitrile and water contains 0.1% formic acid (70:30, v/v). The flow rate was 0.2 mL⋅min^-1. The ion source was an electrospray ionization interface in the positive mode. […] Other parameters were as follows: spray voltage, 4.0 kV; capillary temperature, 350°C; gas flow, 10 L⋅min^-1.

IEC-6/TRPV1+ cells [6] = assay: CAP accumulation assay; assay type: cell-based, rat; details: for accumulation of CAP after inhibitor added at 60 min: CAP alone 60 min, then SB-705498 or NOVO (5 and 10 μM), at 75 min, Figure 3E
Protocol: The transfected cells were grown to 80% confluence in 12-well plates. […] SB-705498, RR or NOVO was then added to the medium for another 15, 30, and 60 min. […] After incubation, the medium was removed, and cell layers were washed three times with ice-cold PBS and then extracted with Membrane Protein Extraction Kit (Thermo Fisher Scientific Inc, Rockford, IL, United States), according to the manufacturer’s protocol. The cytosolic protein extracts were stored at -80°C until LC-MS/MS analysis.
The plasma samples and protein sample with 100 μL were extracted with 400 μL of methanol involving IS (verapamil 50 ng⋅mL^-1) by vortex-mix for 1 min, ultrasonic extraction for 1 h, and then centrifugation for 30 min at 15000 g. The supernatant was transferred into a borosilicate glass and 2 μL was subjected to LC-MS/MS analysis.
The LC-MS/MS system consisted of Agilent 6460 Triple Quadrupole LC/MS systems via an ESI interface. The samples were separated on an Agilent ZORBAX SB-C18 column (3.5 μm, 2.1 mm × 150 mm) and the column temperature was maintained at 30°C. The mobile phase consisted of acetonitrile and water contains 0.1% formic acid (70:30, v/v). The flow rate was 0.2 mL⋅min^-1. The ion source was an electrospray ionization interface in the positive mode. […] Other parameters were as follows: spray voltage, 4.0 kV; capillary temperature, 350°C; gas flow, 10 L⋅min^-1.

## CO[C@@H]1[C@@H](OC(N)=O)[C@@H](O)[C@H](Oc2ccc3c(O)c(NC(=O)c4ccc(O)c(CC=C(C)C)c4)c(=O)oc3c2C)OC1(C)C [NOVO, novobiocin]
IEC-6/TRPV1+ cells [1]; 1.25 μM, incubation 12 h
  Cell Survival: 1.208 ± 0.172
IEC-6/TRPV1+ cells [1]; 1.25 μM, incubation 24 h
  Cell Survival: 1.353 ± 0.192
IEC-6/TRPV1+ cells [1]; 2.5 μM, incubation 12 h
  Cell Survival: 1.139 ± 0.157
IEC-6/TRPV1+ cells [1]; 2.5 μM, incubation 24 h
  Cell Survival: 1.326 ± 0.252
IEC-6/TRPV1+ cells [1]; 5 μM, incubation 12 h
  Cell Survival: 1.118 ± 0.201
IEC-6/TRPV1+ cells [1]; 5 μM, incubation 24 h
  Cell Survival: 1.282 ± 0.203
IEC-6/TRPV1+ cells [1]; 10 μM, incubation 12 h
  Cell Survival: 1.156 ± 0.135
IEC-6/TRPV1+ cells [1]; 10 μM, incubation 24 h
  Cell Survival: 0.954 ± 0.012
IEC-6/TRPV1+ cells [1]; 20 μM, incubation 12 h
  Cell Survival: 1.113 ± 0.102
IEC-6/TRPV1+ cells [1]; 20 μM, incubation 24 h
  Cell Survival: 0.744 ± 0.232
IEC-6/TRPV1+ cells [1]; 40 μM, incubation 12 h
  Cell Survival: 1.018 ± 0.091
IEC-6/TRPV1+ cells [1]; 40 μM, incubation 24 h
  Cell Survival: 0.752 ± 0.291
IEC-6/TRPV1+ cells [1]; 50 μM, incubation 12 h
  Cell Survival: 1.065 ± 0.125
IEC-6/TRPV1+ cells [1]; 50 μM, incubation 24 h
  Cell Survival: 0.668 ± 0.124
IEC-6/TRPV1+ cells [1]; both IEC-6/TRPV1+ and IEC-6/TRPV1-, incubated 24 h
  concentration up to which more than 80% of the cells were viable: 10 µM
IEC-6/TRPV1- cells [2]; 1.25 μM, incubation 12 h
  Cell Survival: 1.261 ± 0.512
IEC-6/TRPV1- cells [2]; 1.25 μM, incubation 24 h
  Cell Survival: 1.192 ± 0.099
IEC-6/TRPV1- cells [2]; 2.5 μM, incubation 12 h
  Cell Survival: 1.063 ± 0.361
IEC-6/TRPV1- cells [2]; 2.5 μM, incubation 24 h
  Cell Survival: 1.113 ± 0.177
IEC-6/TRPV1- cells [2]; 5 μM, incubation 12 h
  Cell Survival: 1.128 ± 0.274
IEC-6/TRPV1- cells [2]; 5 μM, incubation 24 h
  Cell Survival: 0.952 ± 0.134
IEC-6/TRPV1- cells [2]; 10 μM, incubation 12 h
  Cell Survival: 1.101 ± 0.101
IEC-6/TRPV1- cells [2]; 10 μM, incubation 24 h
  Cell Survival: 0.861 ± 0.088
IEC-6/TRPV1- cells [2]; 20 μM, incubation 12 h
  Cell Survival: 1.011 ± 0.194
IEC-6/TRPV1- cells [2]; 20 μM, incubation 24 h
  Cell Survival: 0.749 ± 0.138
IEC-6/TRPV1- cells [2]; 40 μM, incubation 12 h
  Cell Survival: 1.051 ± 0.214
IEC-6/TRPV1- cells [2]; 40 μM, incubation 24 h
  Cell Survival: 0.647 ± 0.015
IEC-6/TRPV1- cells [2]; 50 μM, incubation 12 h
  Cell Survival: 1.123 ± 0.293
IEC-6/TRPV1- cells [2]; 50 μM, incubation 24 h
  Cell Survival: 0.591 ± 0.261
IEC-6/TRPV1+ cells [3]; 1 μM, 12 h
  LDH release: 0.415 ± 0.169 gprot⋅mL ^-1
IEC-6/TRPV1+ cells [3]; 1 μM, 24 h
  LDH release: 0.353 ± 0.026 gprot⋅mL ^-1
IEC-6/TRPV1+ cells [3]; 5 μM, 12 h
  LDH release: 0.356 ± 0.090 gprot⋅mL ^-1
IEC-6/TRPV1+ cells [3]; 5 μM, 24 h
  LDH release: 0.300 ± 0.052 gprot⋅mL ^-1
IEC-6/TRPV1+ cells [3]; 10 μM, 12 h
  LDH release: 0.337 ± 0.005 gprot⋅mL ^-1
IEC-6/TRPV1+ cells [3]; 10 μM, 24 h
  LDH release: 0.299 ± 0.072 gprot⋅mL ^-1
IEC-6/TRPV1+ cells [3]
  LDH release compared with the control: not any significant difference
IEC-6/TRPV1- cells [4]; 1 μM, 12 h
  LDH release: 0.638 ± 0.131 gprot⋅mL ^-1
IEC-6/TRPV1- cells [4]; 1 μM, 24 h
  LDH release: 0.433 ± 0.127 gprot⋅mL ^-1
IEC-6/TRPV1- cells [4]; 5 μM, 12 h
  LDH release: 0.651 ± 0.120 gprot⋅mL ^-1
IEC-6/TRPV1- cells [4]; 5 μM, 24 h
  LDH release: 0.554 ± 0.103 gprot⋅mL ^-1
IEC-6/TRPV1- cells [4]; 10 μM, 12 h
  LDH release: 0.535 ± 0.119 gprot⋅mL ^-1
IEC-6/TRPV1- cells [4]; 10 μM, 24 h
  LDH release: 0.502 ± 0.106 gprot⋅mL ^-1
IEC-6/TRPV1- cells [5]
  accumulation of CAP, co-incubation: did not change
IEC-6/TRPV1+ cells [6]
  accumulation of CAP after inhibitor added at 60 min: decreased immediately
IEC-6/TRPV1+ cells [6]; CAP in combination with 2.5-10 μM NOVO, vs control, Figure 3C
  accumulation of CAP, co-incubation: strong inhibition
IEC-6/TRPV1+ cells [6]; NOVO 2.5-10 μM 24 h prior to 25 μM CAP for 60 min, Figure 3B
  accumulation of CAP in cells after 24 h pre-treatment: positive correlation with a decrease in the accumulation of CAP

## O=C(Nc1ccccc1Br)N[C@@H]1CCN(c2ccc(C(F)(F)F)cn2)C1 [SB-705498]
IEC-6/TRPV1+ cells [1]; 0.001 μM, incubation 12 h
  Cell Survival: 1.114 ± 0.190
IEC-6/TRPV1+ cells [1]; 0.001 μM, incubation 24 h
  Cell Survival: 1.018 ± 0.061
IEC-6/TRPV1+ cells [1]; 0.01 μM, incubation 12 h
  Cell Survival: 1.101 ± 0.236
IEC-6/TRPV1+ cells [1]; 0.01 μM, incubation 24 h
  Cell Survival: 1.129 ± 0.185
IEC-6/TRPV1+ cells [1]; 0.1 μM, incubation 12 h
  Cell Survival: 1.274 ± 0.223
IEC-6/TRPV1+ cells [1]; 0.1 μM, incubation 24 h
  Cell Survival: 1.118 ± 0.139
IEC-6/TRPV1+ cells [1]; 1 μM, incubation 12 h
  Cell Survival: 1.203 ± 0.139
IEC-6/TRPV1+ cells [1]; 1 μM, incubation 24 h
  Cell Survival: 1.052 ± 0.100
IEC-6/TRPV1+ cells [1]; 5 μM, incubation 12 h
  Cell Survival: 1.276 ± 0.156
IEC-6/TRPV1+ cells [1]; 5 μM, incubation 24 h
  Cell Survival: 0.976 ± 0.098
IEC-6/TRPV1- cells [2]; 0.001 μM, incubation 12 h
  Cell Survival: 1.261 ± 0.268
IEC-6/TRPV1- cells [2]; 0.001 μM, incubation 24 h
  Cell Survival: 0.999 ± 0.082
IEC-6/TRPV1- cells [2]; 0.01 μM, incubation 12 h
  Cell Survival: 1.158 ± 0.144
IEC-6/TRPV1- cells [2]; 0.01 μM, incubation 24 h
  Cell Survival: 0.968 ± 0.218
IEC-6/TRPV1- cells [2]; 0.1 μM, incubation 12 h
  Cell Survival: 1.169 ± 0.333
IEC-6/TRPV1- cells [2]; 0.1 μM, incubation 24 h
  Cell Survival: 0.962 ± 0.184
IEC-6/TRPV1- cells [2]; 1 μM, incubation 12 h
  Cell Survival: 1.001 ± 0.229
IEC-6/TRPV1- cells [2]; 1 μM, incubation 24 h
  Cell Survival: 0.933 ± 0.077
IEC-6/TRPV1- cells [2]; 5 μM, incubation 12 h
  Cell Survival: 0.931 ± 0.296
IEC-6/TRPV1- cells [2]; 5 μM, incubation 24 h
  Cell Survival: 0.907 ± 0.039
IEC-6/TRPV1+ cells [3]; 0.1 μM, 12 h
  LDH release: 0.469 ± 0.124 gprot⋅mL ^-1
IEC-6/TRPV1+ cells [3]; 0.1 μM, 24 h
  LDH release: 0.423 ± 0.149 gprot⋅mL ^-1
IEC-6/TRPV1+ cells [3]
  LDH release compared with the control: not any significant difference
IEC-6/TRPV1- cells [4]; 0.1 μM, 12 h
  LDH release: 0.509 ± 0.155 gprot⋅mL ^-1
IEC-6/TRPV1- cells [4]; 0.1 μM, 24 h
  LDH release: 0.537 ± 0.019 gprot⋅mL ^-1
IEC-6/TRPV1- cells [5]
  accumulation of CAP, co-incubation: did not change
IEC-6/TRPV1+ cells [6]
  accumulation of CAP after inhibitor added at 60 min: decreased immediately
